From ChEMBL document CHEMBL5029187 (J Med Chem, 2021)
The source made the active and inactive calls. The calls are words filed in the database; no cut-off is given here.

Columns and labels:
A549 = assay: Cytotoxicity against human A549 cells assessed as reduction in cell viability incubated for 48 hrs by MTT assay; type: functional, cell-based; details: A549, 48 h
SMMC-7721 = assay: Cytotoxicity against human SMMC-7721 cells assessed as reduction in cell viability incubated for 48 hrs by MTT assay; type: functional, cell-based; details: SMMC-7721, 48 h
HepG2 [1] = assay: Cytotoxicity against human HepG2 cells assessed as reduction in cell viability incubated for 48 hrs by MTT assay; type: functional, cell-based; details: HepG2, 48 h
HeLa = assay: Cytotoxicity against human HeLa cells assessed as reduction in cell viability incubated for 48 hrs by MTT assay; type: functional, cell-based
[2] = Prodrug release in TE buffer assessed as increase in camptothecin level at 10 uM measured within 10 mins in the presence of GSH by HPLC analysis; type: ADME
[3] = Prodrug activation in TE buffer assessed as alterations in fluorescence intensity at 10 uM incubated for 60 mins; details: 1 h
[4] = Prodrug activation assessed as increase in fluorescence intensity in presence of GSH at 10 uM incubated for 60 mins; details: 1 h
[5] = Toxicity in human HepG2 cells xenografted BALB/c mouse assessed as reduction in body weight at 30 mg/kg, ip administered for once every 3 days measured after 15 days; type: organism-based; design: scale not given: the % may be the effect or the level left; details: in vivo, 360 h, time 15 day
HepG2 [6] = assay: Antitumor activity against human HepG2 cells xenografted BALB/c mouse assessed as reduction in tumor growth at 30 mg/kg, ip administered for once every 3 days measured after 15 days; type: functional, organism-based; details: time 15.0 day
[7] = Toxicity in BALB/c mouse xenografted with human HepG2 cells assessed as death at 45 mg/kg, ip administered for once every 3 days measured after 15 days; type: organism-based; details: in vivo, 360 h, time 15 day
HepG2 [8] = assay: Cytotoxicity against human HepG2 cells assessed as reduction in cell viability in presence of H2O2 incubated for 48 hrs by MTT assay; type: functional, cell-based
[9] = Drug uptake in human HepG2 cells increase in fluorescence level at 10 uM by fluorescence microscopy; type: ADME, cell-based; details: hepg2, 10 µM, TDE = time-dependent effect
[10] = Antitumor activity against human HepG2 cells xenografted BALB/c mouse assessed as reduction in tumor weight at 30 mg/kg, ip administered for once every 3 days measured after 15 days; type: functional; design: scale not given: the % may be the effect or the level left; details: time 15 day
[11] = Prodrug activation assessed as fluorescence intensity in presence of 5 mM GSH at 100 uM incubated for 12 hrs further incubated with selenol probe Probe 1 followed by addition of 1 mM GSH measured after 4 mins; details: 5000 µM
HepG2 [12] = assay: Inhibition of redox balance in human HepG2 cells assessed as reduction in GSH/GSSG ratio incubated for 24 hrs; type: functional, cell-based
[13] = Prodrug activation in human HepG2 cells assessed as increase in camptothecin level by measuring fluorescence level at 10 uM by fluorescence microscopy; type: cell-based; details: hepg2, 10 µM, TDE = time-dependent effect, time 15-90 min
[14] = Prodrug activation assessed as increase in ferro cytochrome c production in presence of GSH and SOD by cytochrome c reduction assay
HepG2 [15] = assay: Inhibition of redox balance in human HepG2 cells assessed as reduction in cellular thiols incubated for 24 hrs; type: functional, cell-based
HepG2 [16] = assay: Induction of ROS generation in human HepG2 cells assessed as increase in ROS accumulation for 6 hrs by DCFH-DA staining based fluorescence assay; type: functional, cell-based; details: dose 2-5 µM
[17] = GSH reactivity assessed as oxidation of GSH to GSSG at 10 uM measured after 60 mins by HPLC analysis; type: ADME; details: 1 h
[18] = Prodrug activation assessed as production of selenol intermediate concentration in the presence of GSH incubated with Probe 1
HepG2 [19] = assay: Induction of apoptosis in human HepG2 cells assessed as increase in apoptotic cells for 48 hrs by FITC-annexin V/PI double staining based flow cytometry; type: functional, cell-based
[20] = Prodrug activation assessed as changes in fluorescence intensity in presence of GSH at 100 uM incubated for 12 hrs further incubated with selenol probe Probe 1
[21] = Prodrug activation assessed as increase in fluorescence intensity in presence of Cys at 10 uM incubated for 15 mins by HPLC analysis; details: 0.25 h
[22] = Prodrug activation in TE buffer assessed as fold change in fluorescence intensity at 10 uM in presence of GSH

Row | Structure (SMILES) | IC50 (A549) [µM] | IC50 (SMMC-7721) [µM] | IC50 (HepG2 [1]) [µM] | IC50 (HeLa) [µM] | Drug metabolism [3] | other results
1 | CC[C@@]1(OC(=O)OCCCCCCO)C(=O)OCc2c1cc1n(c2=O)Cc2cc3ccccc3nc2-1 | > 10 | > 10 | > 10 | > 10 |  | 
2 | CC[C@@]1(OC(=O)OCCSSCCO)C(=O)OCc2c1cc1n(c2=O)Cc2cc3ccccc3nc2-1 | > 10 | > 10 | 4.86 | 9.62 |  | Drug metabolism [2]: Metabolite_Notdetected
3 | CC[C@@]1(OC(=O)OC2CCCC2)C(=O)OCc2c1cc1n(c2=O)Cc2cc3ccccc3nc2-1 | > 10 | > 10 | > 10 | > 10 |  | 
4 | CC[C@@]1(OC(=O)OC2(CO)C[Se][Se]C2)C(=O)OCc2c1cc1n(c2=O)Cc2cc3ccccc3nc2-1 | > 10 | > 10 | 6.02 | 9.17 | Metabolite_Notdetected | Drug metabolism [4]: Metabolite_Detected
5 | CC[C@@]1(OC(=O)NC2CCCC2)C(=O)OCc2c1cc1n(c2=O)Cc2cc3ccccc3nc2-1 | > 10 | > 10 | > 10 | > 10 |  | 
6 | CC[C@@]1(OC(=O)NC2C[Se][Se]C2)C(=O)OCc2c1cc1n(c2=O)Cc2cc3ccccc3nc2-1 | > 10 | > 10 | > 10 | > 10 | Metabolite_Notdetected | Drug metabolism [4]: Metabolite_Notdetected
7 | CC[C@@]1(O)C(=O)OCc2c1cc1n(c2=O)Cc2cc3ccccc3nc2-1 [CAMPTOTHECIN] |  | > 10 | 3.5 | 8.28 |  | Activity [5]: < 10%; Activity (HepG2 [6]): Active; Activity [7]: Toxic; Activity (HepG2 [8]): Active; Drug uptake [9]: Tde; Activity [10]: 53%
8 | CC[C@@]1(OC(=O)OCC[Se][Se]CCO)C(=O)OCc2c1cc1n(c2=O)Cc2cc3ccccc3nc2-1 | 3.3 | 6.4 | 2.54 | 2.56 | Metabolite_Notdetected | Activity [5]: < 10%; Drug metabolism [11]: Metabolite_Detected; Activity [2]: 90%; inhibition (HepG2 [12]): Active; Activity (HepG2 [6]): Active; Activity [7]: Toxic; Drug metabolism [13]: Tde; Drug metabolism [14]: Not Active; inhibition (HepG2 [15]): Active; Activity (HepG2 [16]): Active; Drug metabolism [17]: Metabolite_Detected; Drug metabolism [18]: 104.4 µM; Activity (HepG2 [19]): Active; Activity [20]: Not Active; Activity [10]: 75%; Drug metabolism [21]: Metabolite_Detected; fold change (FC) [22]: 10
